Source: patent US6906006B1, “N-arly-substituted nitrogen-containing heterocycles, processes and novel intermediates for their preparation, and their use as herbicides and plant growth regulators” (Bayer Aktiengesellschaft, priority 1988, dated 2005)

Key:
[1] = test system: test plants; assay: Pre-emergence test (Use Example A, formula (I) compounds); assay type: in vivo; settings: damage rated after three weeks, comparison substance 1-(2-chloro-4-trifluoromethylphenyl)-5-methyl-4-nitropyrazole
Experimental: • Solvent: 5 parts by weight of acetone • Emulsifier: 1 part by weight of alkylaryl polyglycol ether
(§1) To produce a suitable preparation of active compound, 1 part by weight of active compound is mixed with the stated amount of solvent, the stated amount of emulsifier is added and the concentrate is diluted with water to the desired concentration.
Seeds of the test plants are sown in normal soil and, after 24 hours, watered with the preparation of active compound. It is expedient to keep constant the amount of water per unit area. The concentration of the active compound in the preparation is of no importance, only the amount of active compound applied per unit area being decisive. After three weeks, the degree of damage to the plants is rated in % damage in comparison to the development of the untreated control. The figures denote: • 0%=no action (like untreated control) • 100% total destruction

[2] = test system: test plants; assay: Post-emergence test (Use Example B, formula (I) compounds); assay type: in vivo; settings: sprayed in 2,000 l of water/ha, damage rated after three weeks, comparison substance 1-(2-chloro-4-trifluoromethylphenyl)-5-methyl-4-nitropyrazole
Experimental: • Solvents 5 parts by weight of acetone • Emulsifier: 1 part by weight of alkylaryl polyglycol ether
as §1
Test plants which have a height of 5-15 cm are sprayed with the preparation of the active compound in such a way as to apply the particular amounts of active compound desired per unit area. The concentration of the spray liquor is so chosen that the particular amounts of active compound desired are applied in 2,000 l of water/ha. After three weeks, the degree of damage to the plants is rated in % damage in comparison to the development of the untreated control. The figures denote: • 0%=no action (like untreated control) • 100%=total destruction

| SMILES | effectiveness and crop plant selectivity compared with the prior art [1] | effectiveness and crop plant selectivity compared with the prior art [2] |
| --- | --- | --- |
| CCOCCOc1cc(-n2nc3c(c2C)CCCC3)c(F)cc1C#N [Example 10] | clearly superior to the prior art | clearly superior effectiveness as well as crop plant selectivity |
| Cc1c2c(nn1-c1cc(SC(C)C)c(C#N)cc1F)CCCC2 [Example 9, 4-(5-methyl-3,4-tetramethylene-1-pyrazolyl)-5-fluoro-2-isopropylthiobenzonitrile] |  | clearly superior effectiveness as well as crop plant selectivity |
